Source: ChEMBL document CHEMBL1201862, “PubChem BioAssay data set” (2004)
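Test compounds were applied to cells in 96-well plates for 48 hours at 5 doses. Here, GI50 denotes the concentration required for 50% inhibition of growth.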 Activity calls are given as the source filed them. Cut-off read from the data, not from the text of the source: active = GI50 up to about 1.1 µM and inactive = higher.

Assays:
Assay in all cases: NCI tumour cell line growth inhibition, 48 h
CAKI-1 = system: CAKI-1
CCRF-CEM = system: CCRF-CEM
COLO 205 = system: COLO 205
EKVX = system: EKVX
HCT-15 = system: HCT-15
MOLT-4 = system: MOLT-4
NCI-H23 = system: NCI-H23
NCI-H460 = system: NCI-H460
OVCAR-5 = system: OVCAR-5
SK-MEL-28 = system: SK-MEL-28
SNB-75 = system: SNB-75
SW-620 = system: SW-620
TK-10 = system: TK-10
U-251 = system: U-251
UACC-257 = system: UACC-257
NCI-H226 = system: NCI-H226
HCC 2998 = system: HCC 2998

SMILES | GI50 (CAKI-1) | GI50 (CCRF-CEM) | GI50 (COLO 205) | GI50 (EKVX) | GI50 (HCT-15) | GI50 (MOLT-4) | GI50 (NCI-H23) | GI50 (NCI-H460) | GI50 (OVCAR-5) | GI50 (SK-MEL-28) | GI50 (SNB-75) | GI50 (SW-620) | GI50 (TK-10) | GI50 (U-251) | GI50 (UACC-257) | GI50 (NCI-H226) | GI50 (HCC 2998)
O=C1NC2(CCCCCC2)C2CCCCCCC12O (stereo not given) | > 100 µM (inactive) | > 100 µM (inactive) | > 100 µM (inactive) | > 100 µM (inactive) | > 100 µM | > 100 µM (inactive) | > 100 µM (inactive) | > 100 µM (inactive) | > 100 µM (inactive) | > 100 µM (inactive) | > 100 µM (inactive) | > 100 µM (inactive) | > 100 µM (inactive) | > 100 µM (inactive) | > 100 µM (inactive) |  | 
CC(=O)C1C(c2ccccc2)C2(C)OC(=O)C(C#N)C12C (stereo not given) |  | > 100 µM (inactive) | > 100 µM (inactive) | > 100 µM (inactive) | > 100 µM | > 100 µM (inactive) | > 100 µM (inactive) | > 100 µM (inactive) | > 100 µM (inactive) | > 100 µM (inactive) | > 100 µM (inactive) | > 100 µM (inactive) | > 100 µM (inactive) | > 100 µM (inactive) |  | > 100 µM (inactive) | 
NC(CCCNCc1ccccc1O)C(=O)O (stereo not given) | > 100 µM (inactive) | > 100 µM (inactive) | > 100 µM (inactive) | > 100 µM (inactive) | > 100 µM | > 100 µM (inactive) | > 100 µM (inactive) | > 100 µM (inactive) | > 100 µM (inactive) | > 100 µM (inactive) | > 100 µM (inactive) | > 100 µM (inactive) | > 100 µM (inactive) |  | > 100 µM (inactive) | > 100 µM (inactive) | 
CCOC(=O)C(C(=O)OCC)=C1C=C(c2ccccc2)c2ccccc21 |  | 27.5 µM (inactive) | 54.2 µM (inactive) | > 100 µM (inactive) | 25.8 µM | 30.5 µM (inactive) | 54.5 µM (inactive) | 31.8 µM (inactive) | 38.6 µM (inactive) | > 100 µM (inactive) | 45.7 µM (inactive) | 89.3 µM (inactive) | 79.1 µM (inactive) | 86.7 µM (inactive) | 73.1 µM (inactive) | 78.9 µM (inactive) | 7.29 µM (inactive)
CC(=O)Nc1ccc(S(=O)(=O)N/N=C/CN2C(=O)c3ccccc3C2=O)cc1 | > 100 µM (inactive) | > 100 µM (inactive) | > 100 µM (inactive) | > 100 µM (inactive) | > 100 µM | > 100 µM (inactive) | > 100 µM (inactive) | > 100 µM (inactive) |  |  | > 100 µM (inactive) | > 100 µM (inactive) | > 100 µM (inactive) | > 100 µM (inactive) | > 100 µM (inactive) | > 100 µM (inactive) | > 100 µM (inactive)
Cc1ccc(-c2cc(=O)c3cc(C)c(C)c(C(=O)O)c3o2)cc1N | > 100 µM (inactive) | > 100 µM (inactive) | > 100 µM (inactive) | > 100 µM (inactive) | > 100 µM | > 100 µM (inactive) | > 100 µM (inactive) | > 100 µM (inactive) | > 100 µM (inactive) | > 100 µM (inactive) | > 100 µM (inactive) | > 100 µM (inactive) | > 100 µM (inactive) | > 100 µM (inactive) | > 100 µM (inactive) | > 100 µM (inactive) | 
CCN(CC)CCN1CCc2c([nH]c3ccccc23)C1c1cccnc1 (stereo not given) | > 100 µM (inactive) | 94.6 µM (inactive) |  | > 100 µM (inactive) | > 100 µM | > 100 µM (inactive) | > 100 µM (inactive) | > 100 µM (inactive) | > 100 µM (inactive) | > 100 µM (inactive) | 91.4 µM (inactive) | > 100 µM (inactive) | > 100 µM (inactive) | > 100 µM (inactive) | 37.5 µM (inactive) |  | > 100 µM (inactive)
Cc1cc2c(=O)c3ccccc3[nH]c2c(C(=O)O)c1C | > 100 µM (inactive) | > 100 µM (inactive) | > 100 µM (inactive) | 66.5 µM (inactive) | > 100 µM | > 100 µM (inactive) | > 100 µM (inactive) | > 100 µM (inactive) |  | > 100 µM (inactive) | 31.6 µM (inactive) | > 100 µM (inactive) |  | > 100 µM (inactive) | > 100 µM (inactive) |  | > 100 µM (inactive)
O=CC1CCC=CC1NC(=O)OCc1ccccc1 (stereo not given) | 34.4 µM (inactive) | 25.9 µM (inactive) | > 100 µM (inactive) | > 100 µM (inactive) | 54.8 µM | 44.5 µM (inactive) | > 100 µM (inactive) | 59.3 µM (inactive) | > 100 µM (inactive) | > 100 µM (inactive) | 29.2 µM (inactive) | 37.2 µM (inactive) | 53.3 µM (inactive) | 57.5 µM (inactive) | > 100 µM (inactive) | > 100 µM (inactive) | 
Cn1cnc2nc(Cl)nc(NC(C)(C)C(C)(C)O)c21 | > 100 µM (inactive) | > 100 µM (inactive) | > 100 µM (inactive) | > 100 µM (inactive) | > 100 µM | > 100 µM (inactive) | > 100 µM (inactive) | > 100 µM (inactive) | > 100 µM (inactive) |  | > 100 µM (inactive) | > 100 µM (inactive) | > 100 µM (inactive) | > 100 µM (inactive) | > 100 µM (inactive) | > 100 µM (inactive) | > 100 µM (inactive)
c1ccc2c(c1)CCCc1cc3ccccc3nc1-2 | > 100 µM (inactive) | 94.6 µM (inactive) | 29.9 µM (inactive) | > 100 µM (inactive) | > 100 µM | 57.5 µM (inactive) | > 100 µM (inactive) | > 100 µM (inactive) | > 100 µM (inactive) | > 100 µM (inactive) | 75.3 µM (inactive) | > 100 µM (inactive) | > 100 µM (inactive) | > 100 µM (inactive) | 54.8 µM (inactive) |  | > 100 µM (inactive)
C/C(CC(=O)Nc1ccc([N+](=O)[O-])cc1)=N\Nc1ccc([N+](=O)[O-])cc1[N+](=O)[O-] |  | 45 µM (inactive) | 89.7 µM (inactive) | > 100 µM (inactive) | 7.66 µM | 13.1 µM (inactive) | > 100 µM (inactive) | 44.4 µM (inactive) | > 100 µM (inactive) | > 100 µM (inactive) | > 100 µM (inactive) | > 100 µM (inactive) | > 100 µM (inactive) | > 100 µM (inactive) | 47.1 µM (inactive) | 52.7 µM (inactive) | 13.9 µM (inactive)
CC(=O)SC(SC(C)=O)SC(C)=O |  | 22.5 µM (inactive) | 27.3 µM (inactive) | > 100 µM (inactive) | 53.2 µM | 43.9 µM (inactive) | > 100 µM (inactive) | > 100 µM (inactive) | > 100 µM (inactive) | > 100 µM (inactive) | 60.3 µM (inactive) | > 100 µM (inactive) | > 100 µM (inactive) | > 100 µM (inactive) | 55 µM (inactive) | > 100 µM (inactive) | > 100 µM (inactive)
